ChEMBL document CHEMBL1201862, “PubChem BioAssay data set” (2004)
Active and inactive are the calls of the source.

Legend:
cells [1] = type: functional, cell-based
INS1 = assay: INS-1E survival protection against cytokine death – cell-based, luminescence, retest, dose response (AID 449756); type: functional; settings: Rattus norvegicus, INS1;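 further: cell death triggered by IL-1 beta plus TNF-alpha plus IFN-gamma mixture; protective hits raise ATP signal compared with cytokine alone wells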
[2] = target: T1, DNA repair protein RAD52 homolog (Homo sapiens, UniProt P43351); type: functional, biochemical
T1 sequence (P43351 whole entry): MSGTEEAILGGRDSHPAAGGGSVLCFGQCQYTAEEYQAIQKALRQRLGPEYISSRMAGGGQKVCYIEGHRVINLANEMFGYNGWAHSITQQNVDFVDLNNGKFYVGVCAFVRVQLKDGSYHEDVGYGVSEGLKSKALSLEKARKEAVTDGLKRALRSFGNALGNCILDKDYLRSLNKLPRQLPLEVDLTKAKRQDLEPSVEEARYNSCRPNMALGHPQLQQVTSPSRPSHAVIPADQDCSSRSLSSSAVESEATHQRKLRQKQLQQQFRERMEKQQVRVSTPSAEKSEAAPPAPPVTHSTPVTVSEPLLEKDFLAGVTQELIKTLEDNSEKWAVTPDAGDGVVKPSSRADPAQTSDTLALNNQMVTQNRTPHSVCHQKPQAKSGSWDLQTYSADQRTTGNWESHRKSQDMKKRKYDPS

[3] = Counterscreen for activators of the function of SWI/SNF related, matrix associated, actin dependent regulator of chromatin, subfamily a, member 2 (SMARCA2, BRM): Luminescence-based cell-based high throughput dose response assay to identify non-selective compounds using the VP16 reporter assay.; type: functional
[4] = target: T2, Short transient receptor potential channel 4 (Mus musculus, UniProt Q9QUQ5); assay: block of DAMGO-driven TRPC4 calcium entry – cell-based, HEK293 TRPC4/mu-opioid, Fluo-4 calcium, dose response (AID 434942); type: functional;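 further: potency of inhibitors blocking the TRPC4 calcium response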
T2 sequence (Q9QUQ5 whole entry): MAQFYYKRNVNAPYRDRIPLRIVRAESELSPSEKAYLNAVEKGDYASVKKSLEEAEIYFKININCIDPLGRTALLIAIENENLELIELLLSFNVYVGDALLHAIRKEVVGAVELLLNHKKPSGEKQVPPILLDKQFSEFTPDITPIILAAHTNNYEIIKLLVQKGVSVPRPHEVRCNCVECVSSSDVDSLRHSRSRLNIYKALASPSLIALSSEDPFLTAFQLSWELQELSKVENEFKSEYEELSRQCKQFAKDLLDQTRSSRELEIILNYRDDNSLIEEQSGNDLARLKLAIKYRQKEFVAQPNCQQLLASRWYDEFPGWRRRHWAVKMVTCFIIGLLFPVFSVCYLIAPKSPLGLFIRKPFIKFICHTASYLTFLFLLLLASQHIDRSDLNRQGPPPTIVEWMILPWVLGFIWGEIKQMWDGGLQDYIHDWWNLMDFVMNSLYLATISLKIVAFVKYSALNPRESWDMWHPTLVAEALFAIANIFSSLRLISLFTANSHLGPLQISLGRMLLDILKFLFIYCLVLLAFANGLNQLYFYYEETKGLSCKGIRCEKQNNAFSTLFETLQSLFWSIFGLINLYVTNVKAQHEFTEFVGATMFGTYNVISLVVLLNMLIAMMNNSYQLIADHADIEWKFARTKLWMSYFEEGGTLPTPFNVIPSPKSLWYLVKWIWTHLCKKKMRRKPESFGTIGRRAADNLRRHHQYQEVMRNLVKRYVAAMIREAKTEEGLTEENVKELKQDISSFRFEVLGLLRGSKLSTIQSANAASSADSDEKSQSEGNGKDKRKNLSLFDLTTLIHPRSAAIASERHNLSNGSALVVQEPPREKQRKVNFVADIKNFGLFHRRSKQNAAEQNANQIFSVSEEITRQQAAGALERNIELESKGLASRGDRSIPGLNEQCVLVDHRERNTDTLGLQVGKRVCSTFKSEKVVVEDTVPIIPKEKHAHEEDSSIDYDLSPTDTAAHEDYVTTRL

cells [5] = type: functional, cell-based; remark: listed apart in the source
[6] = target: T3, DNA repair and recombination protein RAD54-like (Homo sapiens, UniProt Q92698); assay: RAD54 Holliday junction migration blockers – biochemical, fluorescence, cherry-picked samples, dose series, confirmation (AID 651657); type: functional
T3 sequence (Q92698 whole entry): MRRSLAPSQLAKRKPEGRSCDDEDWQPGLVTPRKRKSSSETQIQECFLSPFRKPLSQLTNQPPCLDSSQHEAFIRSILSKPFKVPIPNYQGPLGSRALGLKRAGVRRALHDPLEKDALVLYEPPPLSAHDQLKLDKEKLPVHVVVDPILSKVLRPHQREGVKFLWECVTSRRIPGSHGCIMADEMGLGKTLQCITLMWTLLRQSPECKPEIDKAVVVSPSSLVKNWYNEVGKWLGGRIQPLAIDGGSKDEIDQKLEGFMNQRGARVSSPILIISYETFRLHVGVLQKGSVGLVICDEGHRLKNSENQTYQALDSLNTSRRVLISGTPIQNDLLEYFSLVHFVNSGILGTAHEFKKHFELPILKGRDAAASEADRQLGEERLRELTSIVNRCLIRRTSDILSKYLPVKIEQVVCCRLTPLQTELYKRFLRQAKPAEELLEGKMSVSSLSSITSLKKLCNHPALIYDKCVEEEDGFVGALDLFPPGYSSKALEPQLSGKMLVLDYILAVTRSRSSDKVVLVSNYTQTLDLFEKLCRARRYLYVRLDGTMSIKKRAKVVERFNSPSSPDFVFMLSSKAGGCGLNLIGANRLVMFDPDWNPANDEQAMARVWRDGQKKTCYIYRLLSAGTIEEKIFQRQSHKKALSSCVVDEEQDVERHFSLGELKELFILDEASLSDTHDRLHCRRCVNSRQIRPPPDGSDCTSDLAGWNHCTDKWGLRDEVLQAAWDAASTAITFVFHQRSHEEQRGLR

HEK293 [7] = assay: cells; settings: Homo sapiens
[8] = NIH3T3 cell viability loss – ATP luminescence, mouse fibroblasts, counter-screen, dose response (AID 2010); type: functional, cell-based;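 further: cells exposed to compound for about 90 hours before reading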
[9] = target: SWI/SNF-related matrix-associated actin-dependent regulator of chromatin subfamily A member 2 (Homo sapiens, UniProt P51531); assay: Luminescence-based cell-based high throughput dose response assay to identify activators of the function of SWI/SNF related, matrix associated, actin dependent regulator of chromatin, subfamily a, member 2 (SMARCA2, BRM).; type: functional
Sequence of SWI/SNF-related matrix-associated actin-dependent regulator of chromatin subfamily A member 2 (P51531 whole entry): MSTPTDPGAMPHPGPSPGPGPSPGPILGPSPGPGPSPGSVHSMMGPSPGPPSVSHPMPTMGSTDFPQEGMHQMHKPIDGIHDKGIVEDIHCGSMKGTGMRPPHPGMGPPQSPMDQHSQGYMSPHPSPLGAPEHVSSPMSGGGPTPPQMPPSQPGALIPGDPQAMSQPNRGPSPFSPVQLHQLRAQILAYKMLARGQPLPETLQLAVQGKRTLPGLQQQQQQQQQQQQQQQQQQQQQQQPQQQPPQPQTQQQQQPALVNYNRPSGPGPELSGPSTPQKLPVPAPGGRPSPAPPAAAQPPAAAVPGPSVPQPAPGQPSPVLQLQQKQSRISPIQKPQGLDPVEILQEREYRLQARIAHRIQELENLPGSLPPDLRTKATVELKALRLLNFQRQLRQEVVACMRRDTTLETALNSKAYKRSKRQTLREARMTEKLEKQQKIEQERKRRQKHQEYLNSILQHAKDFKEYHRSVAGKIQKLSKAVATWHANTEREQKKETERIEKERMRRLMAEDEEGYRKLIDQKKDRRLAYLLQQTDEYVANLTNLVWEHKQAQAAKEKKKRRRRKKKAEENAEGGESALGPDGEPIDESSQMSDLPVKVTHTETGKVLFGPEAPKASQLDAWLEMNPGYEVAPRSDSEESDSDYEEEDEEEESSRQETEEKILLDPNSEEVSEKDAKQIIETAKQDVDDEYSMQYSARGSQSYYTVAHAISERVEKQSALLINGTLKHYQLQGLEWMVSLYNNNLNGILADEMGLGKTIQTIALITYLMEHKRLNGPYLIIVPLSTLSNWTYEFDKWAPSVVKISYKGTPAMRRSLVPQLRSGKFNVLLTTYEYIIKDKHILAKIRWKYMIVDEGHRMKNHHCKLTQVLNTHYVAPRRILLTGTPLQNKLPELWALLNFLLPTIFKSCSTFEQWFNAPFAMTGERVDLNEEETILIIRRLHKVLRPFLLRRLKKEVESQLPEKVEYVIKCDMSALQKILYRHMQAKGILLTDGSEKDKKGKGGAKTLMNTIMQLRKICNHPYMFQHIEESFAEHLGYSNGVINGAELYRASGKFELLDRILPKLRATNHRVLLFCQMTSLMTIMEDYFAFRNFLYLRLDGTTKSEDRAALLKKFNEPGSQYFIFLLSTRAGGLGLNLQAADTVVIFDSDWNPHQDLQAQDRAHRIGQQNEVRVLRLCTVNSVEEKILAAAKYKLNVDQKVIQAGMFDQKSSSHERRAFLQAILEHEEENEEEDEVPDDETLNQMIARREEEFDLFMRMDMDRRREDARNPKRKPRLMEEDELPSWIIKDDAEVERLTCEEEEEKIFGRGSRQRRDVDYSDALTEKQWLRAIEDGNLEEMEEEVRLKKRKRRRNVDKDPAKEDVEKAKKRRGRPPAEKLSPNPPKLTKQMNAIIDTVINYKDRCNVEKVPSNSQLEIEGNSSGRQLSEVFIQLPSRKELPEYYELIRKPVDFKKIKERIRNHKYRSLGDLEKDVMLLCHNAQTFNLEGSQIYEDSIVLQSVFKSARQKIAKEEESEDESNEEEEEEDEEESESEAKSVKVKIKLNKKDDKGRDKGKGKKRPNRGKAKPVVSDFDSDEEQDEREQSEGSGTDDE

[10] = acridine orange displacement from DNA – biochemical, fluorescence polarization, cherry-pick, artefact control for RAD54 inhibitor project, dose response (AID 651673); type: functional
HEK293 [11] = assay: cells; settings: Homo sapiens; remark: listed apart in the source
[12] = Trypanosoma cruzi growth suppression in host cells – NIH3T3 host cells, beta-gal luminescence, confirmation (AID 2044); type: functional, cell-based;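 further: intracellular parasites grown in NIH/3T3 mouse fibroblasts as host cells; luminescent beta-galactosidase reporter signal from transgenic T. cruzi replicating inside host cells; inhibitors lower the luminescence signal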
[13] = reduction of Shn3 3'UTR-driven luciferase in osteoblasts – cell-based, Clone20 osteoblasts, firefly luciferase, cherry-picked, dose response (AID 624132); type: functional;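 further: firefly luciferase luminescence from reporter carrying the Shn3 3'UTR in osteoblasts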
[14] = Fluorescence-based cell-based high throughput dose response assay for inhibitors of the interaction of nucleotide-binding oligomerization domain containing 2 (NOD2) and the receptor-interacting serine-threonine kinase 2 (RIPK2).; type: functional; settings: Homo sapiens
[15] = non-specific 3'UTR reporter inhibition in Clone20-Shn3RL – cell-based, Renilla luciferase, cherry-picked, counter-screen for Shn3 inhibitor project, dose response (AID 624133); type: functional
Protein RecA = target: T4, Protein RecA (Mycobacterium tuberculosis, UniProt P9WHJ3); assay: Fluorescence Cell-Free Homogeneous Dose Retest to Identify Inhibitors of RecA-Intein Splicing Activity. [Related pubchem assays (depositor defined):AID2097, AID2223, AID489010, AID492950]; type: functional
T4 sequence (P9WHJ3 whole entry): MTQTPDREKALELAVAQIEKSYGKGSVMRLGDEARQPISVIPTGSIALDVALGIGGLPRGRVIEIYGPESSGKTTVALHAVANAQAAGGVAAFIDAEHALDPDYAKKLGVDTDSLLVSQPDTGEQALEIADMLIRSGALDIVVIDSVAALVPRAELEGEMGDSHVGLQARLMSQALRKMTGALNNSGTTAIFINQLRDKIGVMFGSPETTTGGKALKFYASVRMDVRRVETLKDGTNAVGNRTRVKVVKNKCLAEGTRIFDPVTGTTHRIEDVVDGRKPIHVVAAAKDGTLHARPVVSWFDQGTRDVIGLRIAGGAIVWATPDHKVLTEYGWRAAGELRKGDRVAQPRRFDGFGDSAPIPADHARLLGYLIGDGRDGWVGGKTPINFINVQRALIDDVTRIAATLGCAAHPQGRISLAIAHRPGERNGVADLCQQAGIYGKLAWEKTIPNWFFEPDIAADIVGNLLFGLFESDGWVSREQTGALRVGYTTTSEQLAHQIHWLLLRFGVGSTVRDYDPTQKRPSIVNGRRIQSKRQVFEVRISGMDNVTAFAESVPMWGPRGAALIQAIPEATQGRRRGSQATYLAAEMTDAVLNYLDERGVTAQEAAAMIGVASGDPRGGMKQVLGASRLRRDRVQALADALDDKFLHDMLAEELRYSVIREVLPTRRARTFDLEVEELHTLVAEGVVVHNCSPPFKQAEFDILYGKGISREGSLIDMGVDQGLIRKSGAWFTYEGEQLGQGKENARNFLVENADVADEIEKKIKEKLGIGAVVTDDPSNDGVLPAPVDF

[16] = loss of viability in HepG2 cells – cell-based, CellTiter-Glo, cherry-picked, cytotoxicity control for Shn3 inhibitor project, dose response (AID 624134); type: functional
[17] = target: T5, Replicative DNA helicase DnaB (Mycobacterium tuberculosis, UniProt P9WMR3); assay: DnaB intein splicing inhibitors, dose response, biochemical, cell-free fluorescence (AID 449749); type: functional
T5 sequence (P9WMR3 whole entry): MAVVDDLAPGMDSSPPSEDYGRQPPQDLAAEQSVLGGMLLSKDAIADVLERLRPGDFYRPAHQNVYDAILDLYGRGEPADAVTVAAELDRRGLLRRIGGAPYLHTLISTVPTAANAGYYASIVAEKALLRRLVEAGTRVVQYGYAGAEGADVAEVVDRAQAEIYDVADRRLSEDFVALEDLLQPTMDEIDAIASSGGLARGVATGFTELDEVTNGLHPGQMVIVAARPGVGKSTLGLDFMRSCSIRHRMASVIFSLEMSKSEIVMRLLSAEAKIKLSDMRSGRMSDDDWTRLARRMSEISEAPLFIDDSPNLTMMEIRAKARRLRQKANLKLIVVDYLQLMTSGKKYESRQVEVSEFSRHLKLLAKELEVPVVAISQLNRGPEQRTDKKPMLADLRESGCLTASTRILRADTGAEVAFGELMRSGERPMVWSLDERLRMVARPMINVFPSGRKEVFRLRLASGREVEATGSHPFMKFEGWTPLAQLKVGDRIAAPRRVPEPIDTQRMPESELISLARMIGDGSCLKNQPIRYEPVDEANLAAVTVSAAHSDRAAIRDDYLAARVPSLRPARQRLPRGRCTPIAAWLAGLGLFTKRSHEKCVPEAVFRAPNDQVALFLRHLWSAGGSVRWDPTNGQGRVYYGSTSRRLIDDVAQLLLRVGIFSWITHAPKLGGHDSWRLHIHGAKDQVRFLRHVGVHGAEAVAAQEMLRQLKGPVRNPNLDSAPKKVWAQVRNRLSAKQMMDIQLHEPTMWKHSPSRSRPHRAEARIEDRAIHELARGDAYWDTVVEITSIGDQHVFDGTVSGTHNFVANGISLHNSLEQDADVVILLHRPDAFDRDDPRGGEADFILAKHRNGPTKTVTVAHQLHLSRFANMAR

[18] = target: T6, Nuclear receptor subfamily 0 group B member 1 (Homo sapiens, UniProt P51843); type: functional, cell-based;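 further: HEK293T cells transfected with SF-1 and DAX-1 plus StAR promoter luciferase reporter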
T6 sequence (P51843 whole entry): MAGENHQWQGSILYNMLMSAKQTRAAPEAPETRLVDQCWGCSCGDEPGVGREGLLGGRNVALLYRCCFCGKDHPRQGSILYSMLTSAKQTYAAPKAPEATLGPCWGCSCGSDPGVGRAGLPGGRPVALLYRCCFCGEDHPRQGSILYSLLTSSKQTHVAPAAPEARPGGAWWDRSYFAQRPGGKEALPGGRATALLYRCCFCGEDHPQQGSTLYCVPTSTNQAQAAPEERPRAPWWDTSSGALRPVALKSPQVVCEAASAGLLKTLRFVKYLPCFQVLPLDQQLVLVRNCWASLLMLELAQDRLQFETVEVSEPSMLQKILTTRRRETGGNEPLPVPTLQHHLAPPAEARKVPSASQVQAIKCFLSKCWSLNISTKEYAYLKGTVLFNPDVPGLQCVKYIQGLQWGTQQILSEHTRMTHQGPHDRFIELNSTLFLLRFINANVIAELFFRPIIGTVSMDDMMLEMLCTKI

cells [19] = type: functional, cell-based; remark: listed apart in the source

For `OCCCNc1c2ccccc2nc2ccccc12`, the EC50 (cells [1]) was > 350 µM (not active), the AC50 (INS1) was 2.44 µM (active) and the AC50 [2] was 3.08 µM (active). For the same compound, the EC50 [3] was > 91.1 µM (inactive), the EC50 [4] was 6.68 µM (active) and the EC50 (cells [5]) was > 350 µM (not active). For the same compound, the AC50 [6] was 3.37 µM (active), the EC50 (HEK293 [7]) was > 2.21 µM (active) and the EC50 [8] was 7.34 µM (active). For the same compound, the EC50 [9] was > 3.38 µM (active), the AC50 [10] was 55.2 µM (active) and the EC50 (HEK293 [11]) was > 59.7 µM (inactive). For the same compound, the EC50 [12] was 0.266 µM (active).
With `O=C(NCc1cccnc1)/C(=C\c1ccc(-c2ccc(Br)cc2)o1)S(=O)(=O)c1ccccc1` the AC50 [13] was 6.33 µM (active), the IC50 [14] was 5.51 µM (active) and the AC50 (INS1) was 2.9 µM (active). For the same compound, the AC50 [15] was 13 µM (active), the EC50 (Protein RecA) was 20.2 µM (active) and the AC50 [16] was 11.3 µM (active). For the same compound, the AC50 [17] was > 380 µM (inconclusive).
In the case of `O=C(/C=C\Nc1ccccc1Br)c1ccc2c(c1)OCO2`, the IC50 [18] is reported as > 0.0926 µM (active) and the IC50 (cells [19]) is reported as > 67.5 µM (inactive).
